# Measured values from ChEMBL document CHEMBL1201862, “PubChem BioAssay data set” (2004).
# Calls of active or inactive are those of the source.
# Legend:
# [1] = target: T1, Acyl-homoserine lactone acylase PvdQ (Pseudomonas aeruginosa (strain LESB58), UniProt Q9I194); assay: PvdQ acylase enzyme activity blockers – biochemical, fluorescence, plate reader and imaging, cherry-picks, dose response (AID 493231)
# T1 sequence (Q9I194 whole entry): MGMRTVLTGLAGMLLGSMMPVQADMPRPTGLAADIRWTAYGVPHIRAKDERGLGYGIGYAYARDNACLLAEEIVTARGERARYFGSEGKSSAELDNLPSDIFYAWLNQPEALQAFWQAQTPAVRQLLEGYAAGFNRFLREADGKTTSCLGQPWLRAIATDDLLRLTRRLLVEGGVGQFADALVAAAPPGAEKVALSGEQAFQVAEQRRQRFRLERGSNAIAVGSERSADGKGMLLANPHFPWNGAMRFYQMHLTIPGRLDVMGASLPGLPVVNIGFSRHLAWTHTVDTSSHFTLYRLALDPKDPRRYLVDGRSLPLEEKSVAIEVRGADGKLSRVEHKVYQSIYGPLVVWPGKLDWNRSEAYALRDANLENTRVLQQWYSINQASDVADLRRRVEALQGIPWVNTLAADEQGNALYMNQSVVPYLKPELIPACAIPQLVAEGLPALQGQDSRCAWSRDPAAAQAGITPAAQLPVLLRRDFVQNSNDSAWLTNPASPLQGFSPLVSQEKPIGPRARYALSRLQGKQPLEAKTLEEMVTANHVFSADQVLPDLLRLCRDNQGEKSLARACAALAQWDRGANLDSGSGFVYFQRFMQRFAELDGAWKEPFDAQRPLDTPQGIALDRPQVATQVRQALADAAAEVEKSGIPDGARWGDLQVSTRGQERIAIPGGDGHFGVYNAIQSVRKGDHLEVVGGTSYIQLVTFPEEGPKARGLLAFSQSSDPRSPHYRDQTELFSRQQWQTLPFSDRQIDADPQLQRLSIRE
# CAAX prenyl protease 2 = target: T2, CAAX prenyl protease 2 (Saccharomyces cerevisiae S288c, UniProt Q03530); type: biochemical
# T2 sequence (Q03530 whole entry): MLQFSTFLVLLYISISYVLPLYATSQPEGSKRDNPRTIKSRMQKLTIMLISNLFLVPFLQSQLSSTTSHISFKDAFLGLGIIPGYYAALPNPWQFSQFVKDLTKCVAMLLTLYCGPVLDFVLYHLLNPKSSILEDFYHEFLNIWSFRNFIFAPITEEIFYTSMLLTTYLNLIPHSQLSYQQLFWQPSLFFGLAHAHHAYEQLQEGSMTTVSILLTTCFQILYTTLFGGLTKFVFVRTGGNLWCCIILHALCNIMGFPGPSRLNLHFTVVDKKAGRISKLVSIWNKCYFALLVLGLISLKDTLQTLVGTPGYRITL
# [2] = target: T3, C-C chemokine receptor type 6 (Homo sapiens, UniProt P51684); assay: antagonism of CCR6 beta-arrestin recruitment – cell-based, luminescent beta-arrestin readout, dose response (AID 504728); type: functional
# T3 sequence (P51684 whole entry): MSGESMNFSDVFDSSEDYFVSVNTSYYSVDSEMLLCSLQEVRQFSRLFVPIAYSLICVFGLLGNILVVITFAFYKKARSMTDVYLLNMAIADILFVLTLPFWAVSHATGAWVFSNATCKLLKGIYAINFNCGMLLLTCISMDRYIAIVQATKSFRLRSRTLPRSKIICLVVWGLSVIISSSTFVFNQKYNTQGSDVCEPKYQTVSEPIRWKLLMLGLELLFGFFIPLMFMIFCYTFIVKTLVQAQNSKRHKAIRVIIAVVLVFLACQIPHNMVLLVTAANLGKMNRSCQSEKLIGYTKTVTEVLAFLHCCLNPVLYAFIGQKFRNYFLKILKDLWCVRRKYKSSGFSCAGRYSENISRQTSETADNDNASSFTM
# Beta-galactosidase = Beta-galactosidase (Escherichia coli, UniProt Q8VNN2); assay: detection-enzyme interference by beta-gal modulators – biochemical, E. coli enzyme, set 3, artefact control for CCR6 antagonist project, dose response (AID 504712); type: functional
# [3] = target: Heat shock protein HSP 90-alpha (Homo sapiens, UniProt P07900); type: functional, organism-based
# [4] = target: T4, Corticotropin-releasing factor receptor 2/Corticotropin-releasing factor-binding protein (Homo sapiens, UniProt P24387+Q13324); assay: Dose Response confirmation of uHTS hits for small molecule antagonists of the CRF-binding protein and CRF-R2 receptor complex.; type: functional; details: read-out: IC50_Mean
# T4 sequence (Q13324 whole entry): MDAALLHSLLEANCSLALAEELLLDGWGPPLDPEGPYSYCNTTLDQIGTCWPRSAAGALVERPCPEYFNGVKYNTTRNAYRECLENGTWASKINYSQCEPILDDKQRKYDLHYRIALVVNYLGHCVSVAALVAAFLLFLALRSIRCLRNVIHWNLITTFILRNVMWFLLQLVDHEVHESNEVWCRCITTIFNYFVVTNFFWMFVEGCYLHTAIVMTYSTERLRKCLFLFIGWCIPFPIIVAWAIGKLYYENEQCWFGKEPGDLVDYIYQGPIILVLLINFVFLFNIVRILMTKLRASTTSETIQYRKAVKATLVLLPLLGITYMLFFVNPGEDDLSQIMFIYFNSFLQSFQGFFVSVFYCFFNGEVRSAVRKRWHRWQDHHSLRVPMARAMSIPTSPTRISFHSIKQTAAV
# T4 sequence (P24387 whole entry): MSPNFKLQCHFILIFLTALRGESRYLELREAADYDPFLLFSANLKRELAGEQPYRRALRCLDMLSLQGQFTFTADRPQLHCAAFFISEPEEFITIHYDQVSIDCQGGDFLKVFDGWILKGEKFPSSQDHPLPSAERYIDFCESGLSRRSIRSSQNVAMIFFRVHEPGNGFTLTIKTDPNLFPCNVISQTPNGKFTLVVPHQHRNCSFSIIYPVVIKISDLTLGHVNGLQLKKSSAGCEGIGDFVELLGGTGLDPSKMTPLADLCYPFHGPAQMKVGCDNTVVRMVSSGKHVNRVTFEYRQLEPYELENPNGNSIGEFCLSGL
# [5] = target: T4, Corticotropin-releasing factor receptor 2/Corticotropin-releasing factor-binding protein; assay: activators of CRF receptor 2 with binding protein – uHTS hits, confirmation (AID 602473); type: functional; details: read-out: EC50_Mean
# Aminopeptidase N = target: T5, Aminopeptidase N (Plasmodium falciparum FcB1/Columbia, UniProt O96935); assay: malaria alanyl aminopeptidase activity blockers – biochemical, fluorogenic H-Leu-NHMec substrate, 1536-well (AID 1445); set-up: species or system Plasmodium falciparum 3D7, 3D7
# T5 sequence (O96935 whole entry): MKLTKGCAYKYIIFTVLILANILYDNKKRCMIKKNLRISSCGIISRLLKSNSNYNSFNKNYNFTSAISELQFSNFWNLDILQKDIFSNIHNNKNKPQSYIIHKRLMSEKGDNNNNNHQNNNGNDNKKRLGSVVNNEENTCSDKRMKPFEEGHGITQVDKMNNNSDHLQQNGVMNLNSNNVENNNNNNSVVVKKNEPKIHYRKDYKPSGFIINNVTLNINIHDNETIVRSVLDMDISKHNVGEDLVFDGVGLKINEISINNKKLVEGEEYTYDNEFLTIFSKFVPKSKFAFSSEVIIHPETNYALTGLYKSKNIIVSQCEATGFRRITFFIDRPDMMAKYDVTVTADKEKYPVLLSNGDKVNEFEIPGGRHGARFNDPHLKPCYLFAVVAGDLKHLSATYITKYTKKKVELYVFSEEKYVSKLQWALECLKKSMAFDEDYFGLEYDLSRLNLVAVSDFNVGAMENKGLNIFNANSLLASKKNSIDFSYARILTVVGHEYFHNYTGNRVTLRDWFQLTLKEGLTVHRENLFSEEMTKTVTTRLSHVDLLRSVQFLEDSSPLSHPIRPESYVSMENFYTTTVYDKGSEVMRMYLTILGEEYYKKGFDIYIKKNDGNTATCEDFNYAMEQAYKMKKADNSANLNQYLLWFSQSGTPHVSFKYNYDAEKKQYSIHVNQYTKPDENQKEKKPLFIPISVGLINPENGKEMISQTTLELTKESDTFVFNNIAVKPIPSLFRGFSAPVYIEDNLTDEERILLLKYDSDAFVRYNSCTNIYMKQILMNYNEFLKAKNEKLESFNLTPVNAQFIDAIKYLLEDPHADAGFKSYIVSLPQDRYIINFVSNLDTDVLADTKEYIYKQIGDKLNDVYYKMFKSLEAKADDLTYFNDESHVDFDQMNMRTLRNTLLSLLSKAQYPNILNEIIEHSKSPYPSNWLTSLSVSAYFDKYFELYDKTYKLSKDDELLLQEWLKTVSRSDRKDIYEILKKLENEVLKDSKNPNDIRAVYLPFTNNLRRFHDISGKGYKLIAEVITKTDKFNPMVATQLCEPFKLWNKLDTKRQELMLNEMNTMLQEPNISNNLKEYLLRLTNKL
# [6] = target: T6, Voltage-gated N-type calcium channel alpha-1B subunit/Amyloid beta A4 precursor protein-binding family A member 1 (Homo sapiens, UniProt Q00975+Q02410); type: protein assay
# [7] = target: T6, Voltage-gated N-type calcium channel alpha-1B subunit/Amyloid beta A4 precursor protein-binding family A member 1; type: protein assay; remark: listed apart in the source
# Hexokinase = target: T7, Hexokinase (Trypanosoma brucei, UniProt Q38C41); assay: Confirmation assay for inhibitors of Trypanosoma brucei hexokinase 1-Analogue-first series. [Related pubchem assays (depositor defined):AID1430, AID1632, AID2516, AID2560, AID2579, AID2600, AID449725, AID492951]; type: functional
# T7 sequence (Q38C41 whole entry): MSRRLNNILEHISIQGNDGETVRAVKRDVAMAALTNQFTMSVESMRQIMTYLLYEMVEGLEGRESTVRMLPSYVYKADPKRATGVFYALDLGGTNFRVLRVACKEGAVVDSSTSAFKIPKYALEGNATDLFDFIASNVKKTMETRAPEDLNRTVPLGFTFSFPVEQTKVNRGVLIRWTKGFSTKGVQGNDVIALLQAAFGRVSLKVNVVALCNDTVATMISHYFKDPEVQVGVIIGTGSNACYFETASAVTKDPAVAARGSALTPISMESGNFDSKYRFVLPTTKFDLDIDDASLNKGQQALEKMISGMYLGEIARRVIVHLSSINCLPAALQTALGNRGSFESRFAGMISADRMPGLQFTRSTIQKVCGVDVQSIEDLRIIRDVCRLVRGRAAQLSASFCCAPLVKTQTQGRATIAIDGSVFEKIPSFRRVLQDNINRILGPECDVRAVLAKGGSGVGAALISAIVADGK
# Paired box protein Pax-8 = Paired box protein Pax-8 (Homo sapiens, UniProt Q06710); assay: PAX8 transcriptional activity inhibition in RMG-I – RMG-I cells, luciferase, cherry-pick, dose response (AID 687027); type: functional, cell-based;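 further: luciferase reporter driven by Pax8 target thyroperoxidase promoter measured by SteadyGlo luminescence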
# [8] = reduction of Shn3 3'UTR-driven luciferase in osteoblasts – cell-based, Clone20 osteoblasts, firefly luciferase, cherry-picked, dose response (AID 624132); type: functional;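 further: firefly luciferase luminescence from reporter carrying the Shn3 3'UTR in osteoblasts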
# [9] = target: Photoreceptor-specific nuclear receptor (Homo sapiens, UniProt Q9Y5X4); type: functional, cell-based;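 further: CHO-S cells with Gal4-NCOR and VP16-NR2E3 two-hybrid luciferase reporter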
# [10] = blockers of bursicon-stimulated LGR2 cAMP reporter – cell-based, HEK293, CRE-luciferase reporter, cherry pick, set 2, dose response (AID 743343); type: functional;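 further: transfected cells were stimulated with diluted bursicon conditioned medium after compound addition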
# [11] = toxicity toward HepG2 liver cells – cell-based, plate reader, cherry-pick, antagonist series, cytotoxicity control, dose response (AID 743416); type: functional
# [12] = loss of viability in HepG2 cells – cell-based, CellTiter-Glo, cherry-picked, cytotoxicity control for Shn3 inhibitor project, dose response (AID 624134); type: functional
# [13] = blockade of melanocortin 4 receptor signaling – cell-based, plate reader, cherry pick, counter-screen for LGR2 antagonist project, dose response (AID 743444); type: functional;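 further: transfected HEK 293 cells stimulated with alpha-MSH peptide; potency of inhibitors of the alpha-MSH evoked signal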
# [14] = non-specific 3'UTR reporter inhibition in Clone20-Shn3RL – cell-based, Renilla luciferase, cherry-picked, counter-screen for Shn3 inhibitor project, dose response (AID 624133); type: functional
# [15] = viability loss in HEK293 cells – cell-based, plate reader, cherry-picked samples, cytotoxicity control, dose response (AID 743446); type: functional
# [16] = A549 cell cytotoxicity, dose response, cytotoxicity control, plate reader, cherry-pick, antagonist series (AID 743412); type: functional, cell-based
# T6 sequence (Q00975 whole entry): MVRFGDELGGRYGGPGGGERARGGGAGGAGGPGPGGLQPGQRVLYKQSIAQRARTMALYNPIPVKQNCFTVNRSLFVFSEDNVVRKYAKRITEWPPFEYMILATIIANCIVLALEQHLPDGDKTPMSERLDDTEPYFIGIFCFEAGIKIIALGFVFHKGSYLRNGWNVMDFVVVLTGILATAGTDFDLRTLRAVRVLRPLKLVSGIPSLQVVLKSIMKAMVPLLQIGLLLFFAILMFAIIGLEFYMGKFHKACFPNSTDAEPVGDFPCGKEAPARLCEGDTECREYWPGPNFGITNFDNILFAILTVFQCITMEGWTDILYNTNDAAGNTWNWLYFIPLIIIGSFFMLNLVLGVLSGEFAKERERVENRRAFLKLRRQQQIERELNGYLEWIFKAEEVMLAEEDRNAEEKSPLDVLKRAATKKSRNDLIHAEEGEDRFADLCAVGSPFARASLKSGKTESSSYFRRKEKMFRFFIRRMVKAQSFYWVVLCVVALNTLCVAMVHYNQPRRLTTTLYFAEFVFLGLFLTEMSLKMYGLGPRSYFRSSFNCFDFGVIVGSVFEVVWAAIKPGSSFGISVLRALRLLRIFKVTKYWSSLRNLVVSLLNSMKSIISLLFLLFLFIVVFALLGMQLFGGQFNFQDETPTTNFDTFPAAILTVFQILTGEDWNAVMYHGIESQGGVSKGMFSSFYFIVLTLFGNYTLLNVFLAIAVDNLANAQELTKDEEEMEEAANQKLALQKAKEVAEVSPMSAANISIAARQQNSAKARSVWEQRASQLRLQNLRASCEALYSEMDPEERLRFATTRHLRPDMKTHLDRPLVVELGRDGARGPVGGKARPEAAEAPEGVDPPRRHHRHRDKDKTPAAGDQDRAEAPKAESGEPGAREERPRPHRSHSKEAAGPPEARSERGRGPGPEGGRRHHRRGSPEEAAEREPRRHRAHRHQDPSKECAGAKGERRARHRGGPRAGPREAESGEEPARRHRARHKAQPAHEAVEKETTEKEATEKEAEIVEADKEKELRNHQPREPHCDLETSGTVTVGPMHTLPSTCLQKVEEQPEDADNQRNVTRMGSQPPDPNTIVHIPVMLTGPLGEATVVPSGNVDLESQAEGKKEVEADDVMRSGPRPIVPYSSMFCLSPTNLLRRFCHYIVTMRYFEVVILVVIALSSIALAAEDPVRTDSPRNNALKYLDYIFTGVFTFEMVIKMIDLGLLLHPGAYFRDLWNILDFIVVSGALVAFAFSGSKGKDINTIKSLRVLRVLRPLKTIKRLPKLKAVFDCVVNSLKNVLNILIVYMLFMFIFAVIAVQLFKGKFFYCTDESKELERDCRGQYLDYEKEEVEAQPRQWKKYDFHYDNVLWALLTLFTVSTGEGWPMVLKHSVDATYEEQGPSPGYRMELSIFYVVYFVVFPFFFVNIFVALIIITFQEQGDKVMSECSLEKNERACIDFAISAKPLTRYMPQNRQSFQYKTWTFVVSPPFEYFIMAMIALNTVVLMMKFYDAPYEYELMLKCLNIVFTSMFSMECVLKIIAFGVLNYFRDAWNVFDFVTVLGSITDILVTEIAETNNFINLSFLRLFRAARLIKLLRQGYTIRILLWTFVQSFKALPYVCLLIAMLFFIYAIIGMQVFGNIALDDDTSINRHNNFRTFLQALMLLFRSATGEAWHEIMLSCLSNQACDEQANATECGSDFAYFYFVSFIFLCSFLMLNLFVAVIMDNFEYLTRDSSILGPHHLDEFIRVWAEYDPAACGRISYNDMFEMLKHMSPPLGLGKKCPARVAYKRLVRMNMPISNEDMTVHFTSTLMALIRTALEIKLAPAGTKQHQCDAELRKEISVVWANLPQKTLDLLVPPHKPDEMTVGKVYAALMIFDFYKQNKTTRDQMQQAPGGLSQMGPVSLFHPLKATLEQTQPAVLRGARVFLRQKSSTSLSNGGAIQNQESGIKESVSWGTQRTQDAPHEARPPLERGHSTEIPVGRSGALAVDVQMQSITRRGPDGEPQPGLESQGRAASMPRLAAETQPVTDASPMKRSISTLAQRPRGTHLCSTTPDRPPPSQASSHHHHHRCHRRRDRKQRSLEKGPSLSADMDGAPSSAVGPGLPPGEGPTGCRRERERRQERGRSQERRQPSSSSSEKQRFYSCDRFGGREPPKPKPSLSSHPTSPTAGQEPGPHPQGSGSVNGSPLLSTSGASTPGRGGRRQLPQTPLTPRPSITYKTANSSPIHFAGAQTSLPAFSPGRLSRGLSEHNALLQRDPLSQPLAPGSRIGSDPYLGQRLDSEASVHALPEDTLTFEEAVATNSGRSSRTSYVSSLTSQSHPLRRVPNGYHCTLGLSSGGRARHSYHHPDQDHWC
# T6 sequence (Q02410 whole entry): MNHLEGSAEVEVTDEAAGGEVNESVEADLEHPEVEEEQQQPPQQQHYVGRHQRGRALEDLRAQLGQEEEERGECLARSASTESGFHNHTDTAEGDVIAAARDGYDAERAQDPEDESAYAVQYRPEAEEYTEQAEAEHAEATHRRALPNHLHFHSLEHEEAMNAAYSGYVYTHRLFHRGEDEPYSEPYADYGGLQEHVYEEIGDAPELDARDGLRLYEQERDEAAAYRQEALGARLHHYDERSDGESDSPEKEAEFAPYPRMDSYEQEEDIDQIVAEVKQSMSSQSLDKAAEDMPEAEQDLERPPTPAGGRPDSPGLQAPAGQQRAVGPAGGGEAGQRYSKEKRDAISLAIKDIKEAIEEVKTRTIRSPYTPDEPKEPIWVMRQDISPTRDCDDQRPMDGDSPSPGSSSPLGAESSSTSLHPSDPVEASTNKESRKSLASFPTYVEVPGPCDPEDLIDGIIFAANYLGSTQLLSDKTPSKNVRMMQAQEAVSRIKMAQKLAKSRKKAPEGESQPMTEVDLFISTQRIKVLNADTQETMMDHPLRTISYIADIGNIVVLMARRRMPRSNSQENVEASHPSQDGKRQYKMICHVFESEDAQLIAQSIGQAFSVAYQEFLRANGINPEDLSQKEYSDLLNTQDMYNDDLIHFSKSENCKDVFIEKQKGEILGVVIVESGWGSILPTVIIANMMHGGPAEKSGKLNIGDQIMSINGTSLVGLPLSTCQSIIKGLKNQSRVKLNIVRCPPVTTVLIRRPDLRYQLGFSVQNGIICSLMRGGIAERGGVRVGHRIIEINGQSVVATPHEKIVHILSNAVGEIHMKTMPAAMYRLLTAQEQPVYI
# Chain of Beta-galactosidase (Q8VNN2 whole entry): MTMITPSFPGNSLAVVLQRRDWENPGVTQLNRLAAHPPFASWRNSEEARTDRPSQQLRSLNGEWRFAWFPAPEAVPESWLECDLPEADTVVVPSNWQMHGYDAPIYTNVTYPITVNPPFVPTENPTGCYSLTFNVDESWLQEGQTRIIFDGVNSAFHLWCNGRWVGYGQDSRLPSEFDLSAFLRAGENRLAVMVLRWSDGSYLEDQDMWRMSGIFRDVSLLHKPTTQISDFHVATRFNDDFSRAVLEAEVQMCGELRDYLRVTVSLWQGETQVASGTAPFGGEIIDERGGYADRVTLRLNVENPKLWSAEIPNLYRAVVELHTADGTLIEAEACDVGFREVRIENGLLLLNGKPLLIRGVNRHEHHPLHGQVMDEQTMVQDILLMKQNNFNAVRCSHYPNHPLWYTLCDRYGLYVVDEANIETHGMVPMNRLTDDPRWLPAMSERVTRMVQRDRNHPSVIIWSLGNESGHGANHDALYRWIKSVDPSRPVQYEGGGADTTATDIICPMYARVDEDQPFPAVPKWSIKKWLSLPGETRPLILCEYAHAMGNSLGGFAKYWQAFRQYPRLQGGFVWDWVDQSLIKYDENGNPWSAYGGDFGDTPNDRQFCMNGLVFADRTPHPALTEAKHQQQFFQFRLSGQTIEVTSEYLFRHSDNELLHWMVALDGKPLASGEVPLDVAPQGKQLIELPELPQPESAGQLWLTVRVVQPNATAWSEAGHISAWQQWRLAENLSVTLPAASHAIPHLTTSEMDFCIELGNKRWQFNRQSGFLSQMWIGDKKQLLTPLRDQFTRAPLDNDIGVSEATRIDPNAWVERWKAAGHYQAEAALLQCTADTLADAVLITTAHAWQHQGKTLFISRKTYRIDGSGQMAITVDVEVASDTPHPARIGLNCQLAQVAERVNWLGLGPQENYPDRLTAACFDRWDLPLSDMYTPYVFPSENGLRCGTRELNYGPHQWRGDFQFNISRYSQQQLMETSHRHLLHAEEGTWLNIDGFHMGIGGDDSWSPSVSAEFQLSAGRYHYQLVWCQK
# Chain of Paired box protein Pax-8 (Q06710 whole entry): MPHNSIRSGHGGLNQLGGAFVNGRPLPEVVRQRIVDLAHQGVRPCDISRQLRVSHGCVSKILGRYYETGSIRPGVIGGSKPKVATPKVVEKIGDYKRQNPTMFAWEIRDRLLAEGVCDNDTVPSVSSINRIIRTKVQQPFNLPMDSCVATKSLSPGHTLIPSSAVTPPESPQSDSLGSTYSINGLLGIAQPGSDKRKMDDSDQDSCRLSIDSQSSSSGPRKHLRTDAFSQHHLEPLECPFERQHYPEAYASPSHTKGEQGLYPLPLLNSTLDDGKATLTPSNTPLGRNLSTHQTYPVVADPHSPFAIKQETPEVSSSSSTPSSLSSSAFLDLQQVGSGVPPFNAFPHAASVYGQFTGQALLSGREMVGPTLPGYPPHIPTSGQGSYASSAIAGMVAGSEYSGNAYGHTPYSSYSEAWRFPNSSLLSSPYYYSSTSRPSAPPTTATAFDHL
# Chain of Photoreceptor-specific nuclear receptor (Q9Y5X4 whole entry, the tested form may be a part): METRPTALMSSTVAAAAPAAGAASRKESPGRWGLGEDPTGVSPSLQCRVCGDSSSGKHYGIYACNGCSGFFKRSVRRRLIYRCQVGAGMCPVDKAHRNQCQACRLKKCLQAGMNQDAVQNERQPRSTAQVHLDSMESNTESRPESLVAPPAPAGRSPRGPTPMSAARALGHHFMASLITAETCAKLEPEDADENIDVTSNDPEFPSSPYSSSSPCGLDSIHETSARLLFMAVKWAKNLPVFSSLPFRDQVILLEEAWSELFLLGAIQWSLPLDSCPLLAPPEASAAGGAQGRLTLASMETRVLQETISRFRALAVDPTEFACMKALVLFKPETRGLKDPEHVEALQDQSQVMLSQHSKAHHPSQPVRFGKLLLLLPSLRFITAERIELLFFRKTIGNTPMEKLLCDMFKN
structure (smiles),measurement,setting,value
COc1cccc(C(=O)CC(C#N)c2ccc(F)cc2)c1 (stereo not drawn),AC50,[1],6.55 µM (active)
CC1CCN(C(=O)C2CCN(S(=O)(=O)c3ccc(-n4cnnn4)cc3)CC2)CC1,AC50,CAAX prenyl protease 2,22.8 µM (active)
O=C(NC1CCS(=O)(=O)C1)c1cccc(Br)c1 (stereo not drawn),AC50,[1],8.94 µM (active)
COc1ccc(/C=C2/CCC(CN3CCOCC3)C2=O)cc1 (stereo not drawn),IC50,[2],21.1 µM (inactive)
same,IC50,Beta-galactosidase,> 66.6 µM (inactive)
same,AC50,[3],0.902 µM (active)
same,IC50,[4],> 47.1 µM (inactive)
same,EC50,[5],> 53 µM (inactive)
O=C1N=C(NS(=O)(=O)Cc2ccccc2)S/C1=C/c1cccc([N+](=O)[O-])c1,IC50,Aminopeptidase N,50.2 µM (active)
C/C=C\C=C/C(=O)Nc1cccc(C2=NOC3(C2)C[C@@H](C(N)=O)N(C(=O)/C=C/C=C\C)C3)c1 (stereo partly drawn),IC50,[6],10.1 µM (active)
same,IC50,[7],4.01 µM (active)
Fc1ccc(N2N=C(c3cccs3)CC2c2ccco2)c(F)c1 (stereo not drawn),IC50,Aminopeptidase N,107 µM (active)
Cc1ccc(C(=O)Nc2cc(Cl)ccc2C(=O)O)cc1C,IC50,Hexokinase,10.7 µM (active)
COC(=O)c1ccc(/C=C2/SC(=S)N(CCCC(=O)Nc3ccc(O)cc3)C2=O)cc1,IC50,[6],35.4 µM (active)
same,IC50,[7],> 50 µM (inactive)
CC(=O)O/C(=C1\CC2C3CC=C4CC(OC(C)=O)CCC4(C)C3CCC2(C)C1=O)C(F)(F)F (stereo not drawn),IC50,[2],> 66.6 µM (inactive)
same,IC50,Beta-galactosidase,> 66.6 µM (inactive)
CC(=O)Nc1ccc(Sc2ccc([N+](=O)[O-])o2)cc1,IC50,[2],> 66.6 µM (inactive)
same,AC50,Paired box protein Pax-8,7.36 µM (active)
same,AC50,[8],2.15 µM (active)
same,IC50,[9],2.72 µM (active)
same,AC50,[10],26.4 µM (active)
same,IC50,Beta-galactosidase,> 66.6 µM (inactive)
same,AC50,[11],13.8 µM (active)
same,AC50,[12],20.6 µM (active)
same,AC50,[13],22.7 µM (active)
same,AC50,[14],11.2 µM (active)
same,AC50,[15],7.13 µM (active)
same,AC50,[16],37 µM (active)
CNC(=O)c1nc[nH]c1C(=O)N[C@@H](CC(C)C)C(=O)OC(C)(C)C,IC50,Aminopeptidase N,39.3 µM (active)
CCOC(=O)N1CCN(c2ccc(Cl)cc2)CC1,AC50,[1],7.18 µM (active)
CN(Cc1ccccc1)C(=O)Cn1sc2ccccc2c1=O,IC50,Hexokinase,7.87 µM (active)
O=C(Nc1cc(Cl)ccc1C(=O)O)c1ccc2ccccc2c1,IC50,Hexokinase,5.41 µM (active)
